Results published in US9102688B2, “Sulfonaminoquinoline hepcidin antagonists” (Vifor (International) AG, priority 2011, dated 2015).

The compounds below were run against T1, human ferroportin (Homo sapiens, UniProt Q9NP59) (assay: ferroportin internalization assay (inhibition of hepcidin-induced internalization of Fpn)). Conditions: MDCK-FPN-HaloTag cells, 100 nM hepcidin, overnight incubation; concentration range from 0.04 to 40 μM.
T1 construct: expressed in transfected cells
T1 sequence (Q9NP59 1-571): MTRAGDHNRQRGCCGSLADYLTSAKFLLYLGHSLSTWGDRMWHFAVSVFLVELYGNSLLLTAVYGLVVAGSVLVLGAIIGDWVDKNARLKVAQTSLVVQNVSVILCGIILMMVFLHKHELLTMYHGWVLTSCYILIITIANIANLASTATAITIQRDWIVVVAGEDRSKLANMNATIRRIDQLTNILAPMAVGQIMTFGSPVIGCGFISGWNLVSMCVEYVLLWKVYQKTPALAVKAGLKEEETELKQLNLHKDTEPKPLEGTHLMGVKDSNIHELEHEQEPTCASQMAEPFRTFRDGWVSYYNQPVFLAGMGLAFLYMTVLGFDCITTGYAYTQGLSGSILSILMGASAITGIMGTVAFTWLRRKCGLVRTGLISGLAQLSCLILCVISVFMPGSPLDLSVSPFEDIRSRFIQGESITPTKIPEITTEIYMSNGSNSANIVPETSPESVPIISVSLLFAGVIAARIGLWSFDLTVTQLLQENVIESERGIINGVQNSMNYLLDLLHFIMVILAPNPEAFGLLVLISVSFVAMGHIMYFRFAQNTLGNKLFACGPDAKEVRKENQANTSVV
Format: cell-based
Description: The hepcidin-antagonistic action of the sulfonaminoquinoline compounds of the present invention was determined by means of the “ferroportin internalization assay” described in the following.
Organic compounds of low molecular weight which counteract the biological actions of hepcidin on its receptor, the iron exporter ferroportin (Fpn), were identified on the basis of their ability to inhibit hepcidin-induced internalization of Fpn in living cells. For this purpose, a stable cell line (Madin-Darby canine kidney, MDCK) was produced which constitutively expresses human ferroportin fused recombinantly at its C terminus with a fluorescent reporter protein (HaloTag®, Promega Corp.). The internalization of Fpn was monitored by labelling these cells with fluorescent ligands (HaloTag®-TMR, tetramethylrhodamine) which join covalently on to the HaloTag reporter gene fused with the Fpn. […] Optimized image analysis algorithms were used to ascertain the cell surface and to quantify the corresponding membrane fluorescence associated with the Fpn-HaloTag fusion protein. This assay allows a quantitative image-based analysis in order to quickly evaluate compounds which can block hepcidin-induced internalization of Fpn. This assay is a direct in vitro pendant of the in vivo action mechanism proposed for medicament candidates and is therefore suitable as an initial assay with a high throughput for identifying compounds which counteract the action of hepcidin on its receptor ferroportin.
• 7,500 cells per well (MDCK-FPN-HaloTag) were transinoculated in 50 μl of DMEM medium (Dulbeccos Modified Eagle Medium with 10% foetal bovine serum (FBS), which contained 1% penicillin, 1% streptomycin and 450 μg/ml of G-418) in microtitre plates with 384 wells (384 Cell carrier plates, Perkin Elmer, cat. no. 6007430), followed by incubation overnight at 37° C./5% CO2. • The volume of the medium was reduced to 10 μl, and 10 μl of 5 μM HaloTag-TMR ligands (Promega, cat. no. G 8251) were added in DMEM medium in order to stain the Fpn-HaloTag fusion protein. • 15 min incubation at 37° C./5% CO2 • The HaloTag-TMR ligand was removed and the cells were washed with fresh DMEM medium and the volume was reduced to 20 μl of DMEM medium. • 3 μl per well of a solution of the test compound (dissolved DMSO) were added ([…]). • 7 μl of […] hepcidin (Peptides International, cat. no. PLP-4392-s, 100 μM stock solution diluted in water in DMEM medium) were added per well up to a final hepcidin concentration of 100 nM. • The cells were incubated overnight at 37° C./5% CO2. • The cells were fixed by adding paraformaldehyde (PFA, Electron Microscopy Sciences, cat. no. 15710-S) directly to the cells up to a final concentration of 4%, followed by incubation at room temperature for 15-20 minutes. • The PFA solution was removed and the cells were washed with PBS (phosphate-buffered saline solution), in each case 30 μl remaining in the plate. • 20 μl of Draq5 (Biostatus, cat. no. DR 51000) were added up to a final concentration of 2.5 μM in order to stain the cell nuclei, and the plates were sealed with a foil plate seal. • The plates were analysed with the Opera Plate Imager (Opera Confocal Plate Imager, Perkin Elmer) with 7 images per well; 440 ms exposure time per image, […] focal point height.

| Structure (SMILES) | IC50 |
| --- | --- |
| NC(=O)c1ccnc2c(NS(=O)(=O)c3ccccc3)cccc12 [Example 539, 8-Benzenesulfonylamino-quinoline-4-carboxylic acid amide] | 10.4 µM |
| O=S1(=O)Nc2c(cc(C(F)(F)F)c3cccnc23)-c2ccccc21 [Example 311, 12-Trifluoromethyl-5H-6-thia-4,5-diaza-chrysene 6,6-dioxide] | 14.1 µM |
| O=S(=O)(Nc1cc(F)c(F)c2cccnc12)c1ccccc1 [Example 97, N-(5,6-Difluoro-quinolin-8-yl)-benzenesulfonamide] | 8 µM |
| O=S(=O)(Nc1cc(F)cc2cccnc12)c1cccnc1 [Example 96, Pyridine-3-sulfonic acid (6-fluoro-quinolin-8-yl)-amide] | 5.87 µM |
| Cc1cccc(S(=O)(=O)Nc2cccc3cccnc23)n1 [Example 228, 6-Methyl-pyridine-2-sulfonic acid quinolin-8-ylamide] | 15.4 µM |
| O=C(c1ccc2c(c1)-c1cc(Cl)c3cccnc3c1NS2(=O)=O)N1CCC(O)C1 (stereo not shown) [Example 531, (12-Chloro-6,6-dioxo-5,6-dihydro-6λ*6*-thia-4,5-diaza-chrysen-9-yl)-(3-hydroxy-pyrrolidin-1-yl)-methanone] | 15 µM |
| CN(C)C(=O)c1ccc2c(c1)-c1cc(Cl)c3cccnc3c1NS2(=O)=O [Example 525, 12-Chloro-6,6-dioxo-5,6-dihydro-6λ*6*-thia-4,5-diaza-chrysene-9-carboxylic acid dimethylamide] | 4.06 µM |
| CN(C)CCNCc1cc(C2c3ccc4cccnc4c3NS(=O)(=O)N2C)ccc1F (stereo not shown) [Example 425, N′-[2-Fluoro-5-(2-methyl-3,3-dioxo-1,2,3,4-tetrahydro-3λ*6*-thia-2,4,5-triaza-phenanthren-1-yl)-benzyl]-N,N-dimethyl-ethane-1,2-diamine] | 7.41 µM |
| O=S1(=O)Nc2c(cc(N3CCCC3)c3cccnc23)-c2ccccc21 [Example 553, 12-Pyrrolidin-1-yl-5H-6-thia-4,5-diaza-chrysene 6,6-dioxide] | 4.36 µM |
| O=S1(=O)Nc2c(ccc3cccnc23)-c2cccnc21 [Example 318, 11H-12-Thia-1,10,11-triaza-chrysene 12,12-dioxide] | 6.15 µM |
| O=S1(=O)Nc2c(cc(Cl)c3cccnc23)-c2cc(C(F)(F)F)ccc21 [Example 334, 12-Chloro-9-trifluoromethyl-5H-6-thia-4,5-diaza-chrysene 6,6-dioxide] | 6.25 µM |
| CN(C)CCN(C)c1cc2c(c3ncccc13)NS(=O)(=O)c1ccccc1-2 [Example 552, N-(6,6-Dioxo-5,6-dihydro-6λ*6*-thia-4,5-diaza-chrysen-12-yl)-N,N′,N′-trimethyl-ethane-1,2-diamine] | 5 µM |
| CNC(=O)c1ccc2c(c1)-c1ccc3cccnc3c1NS2(=O)=O [Example 522, 6,6-Dioxo-5,6-dihydro-6λ*6*-thia-4,5-diaza-chrysene-9-carboxylic acid methylamide] | 13.2 µM |
| Cc1ccc(S(=O)(=O)Nc2cccc3cccnc23)cc1 [Example 9, 4-Methyl-N-quinolin-8-yl-benzenesulfonamide] | 49.9 µM |
| CNC(=O)c1ccnc2c(NS(=O)(=O)c3ccccc3)cccc12 [Example 538, 8-Benzenesulfonylamino-quinoline-4-carboxylic acid methylamide] | 6.24 µM |

Second part, the compound after the results:

| IC50 | Structure (SMILES) |
| --- | --- |
| 2.78 µM | O=S1(=O)Nc2c(ccc3cccnc23)C(c2ccc(F)cc2)N1 (stereo not shown) [Example 398, 1-(4-Fluoro-phenyl)-1,4-dihydro-2H-3-thia-2,4,5-triaza-phenanthrene 3,3-dioxide] |
| 0.61 µM | Cc1cnc2c(NS(=O)(=O)c3ccccc3)cccc2c1 [Example 45, N-(3-Methyl-quinolin-8-yl)-benzenesulfonamide] |
| 1.71 µM | O=S(=O)(Nc1cccc2cccnc12)c1cccc(Cl)c1F [Example 62, 3-Chloro-2-fluoro-N-quinolin-8-yl-benzenesulfonamide] |
| 1.5 µM | O=S(=O)(Nc1cc(F)c(Cl)c2cccnc12)c1ccccc1 [Example 82, N-(5-Chloro-6-fluoro-quinolin-8-yl)-benzenesulfonamide] |
| 2 µM | O=C(NCCN1CCCCC1)c1ccnc2c3c(ccc12)-c1ccccc1S(=O)(=O)N3 [Example 544, 6,6-Dioxo-5,6-dihydro-6λ*6*-thia-4,5-diaza-chrysene-1-carboxylic acid (2-piperidin-1-yl-ethyl)-amide] |
| 0.985 µM | O=S(=O)(Nc1cccc2cccnc12)c1cccc(Cl)c1 [Example 20, 3-Chloro-N-quinolin-8-yl-benzenesulfonamide] |
| 2.01 µM | O=S1(=O)Nc2c(ccc3cccnc23)-c2cc(N3CCC(O)C3)ccc21 (stereo not shown) [Example 506, 1-(6,6-Dioxo-5,6-dihydro-6λ*6*-thia-4,5-diaza-chrysen-9-yl)-pyrrolidin-3-ol] |
| 3.84 µM | O=S(=O)(Nc1cc(OC(F)(F)F)cc2cccnc12)c1cccnc1 [Example 237, Pyridine-3-sulfonic acid (6-trifluoromethoxy-quinolin-8-yl)-amide] |
| 0.69 µM | O=S(=O)(Nc1cc(F)cc2cccnc12)c1ccc(Cl)cc1F [Example 95, 4-Chloro-2-fluoro-N-(6-fluoro-quinolin-8-yl)-benzenesulfonamide] |
| 3.75 µM | N#Cc1ccc(S(=O)(=O)Nc2cc(F)cc3cccnc23)cn1 [Example 239, 6-Cyano-pyridine-3-sulfonic acid (6-fluoro-quinolin-8-yl)-amide] |
| 0.96 µM | CN1C(c2ccc(C(F)(F)F)nc2)c2ccc3cccnc3c2NS1(=O)=O (stereo not shown) [Example 386, 2-Methyl-1-(6-trifluoromethyl-pyridin-3-yl)-1,4-dihydro-2H-3-thia-2,4,5-triaza-phenanthrene 3,3-dioxide] |
| 1.07 µM | COc1ccc(C2c3ccc4cccnc4c3NS(=O)(=O)N2C)c(OC)c1 (stereo not shown) [Example 394, 1-(2,4-Dimethoxy-phenyl)-2-methyl-1,4-dihydro-2H-3-thia-2,4,5-triaza-phenanthrene 3,3-dioxide] |
| 2.09 µM | Cc1cccc(S(=O)(=O)Nc2cccc3cccnc23)c1 [Example 19, 3-Methyl-N-quinolin-8-yl-benzenesulfonamide] |
| 3.2 µM | O=S(=O)(Nc1cccc2cccnc12)c1ccc(Cl)cc1 [Example 5, 4-Chloro-N-quinolin-8-yl-benzenesulfonamide] |
| 4 µM | Cc1c(Cl)cccc1S(=O)(=O)Nc1cccc2cccnc12 [Example 68, 3-Chloro-2-methyl-N-quinolin-8-yl-benzenesulfonamide] |
| 0.32 µM | O=S1(=O)Nc2c(cc(Cl)c3cccnc23)-c2ccccc21 [Example 328, 12-Chloro-5H-6-thia-4,5-diaza-chrysene 6,6-dioxide] |
| 0.13 µM | O=S1(=O)Nc2c(ccc3cccnc23)-c2cc(C(F)(F)F)ccc21 [Example 78, 9-Trifluoromethyl-5H-6-thia-4,5-diaza-chrysene 6,6-dioxide] |
| 2.24 µM | COc1ccc(C2c3ccc4cccnc4c3NS(=O)(=O)N2C)cc1 (stereo not shown) [Example 390, 1-(4-Methoxy-phenyl)-2-methyl-1,4-dihydro-2H-3-thia-2,4,5-triaza-phenanthrene 3,3-dioxide] |
| 1.05 µM | O=S(=O)(Nc1ccc(C(F)(F)F)c2cccnc12)c1ccccc1 [Example 91, N-(5-Trifluoromethyl-quinolin-8-yl)-benzenesulfonamide] |
